Experimental data taken from patent EP3345917A1, “ANTIPROTOZOAL COMPOUNDS” (Bacoba AG, priority 2017, dated 2018).
Non-standard residues stand in square brackets, D forms with d. Residues, ends and D or L forms follow the SMILES beside them. *: point of attachment. Acetyl(1-adamantyl) = O=C(CC12CC3CC(CC(C3)C1)C2)*; Dansyl = CN(C)c1cccc2c(S(=O)(=O)*)cccc12; NH((S)CH(Me)CH2NMe2) = C[C@@H](CN(C)C)N*; dGly(nOct) = CCCCCCCC[C@@H](N)C(=O)O; Gly(octyl) = CCCCCCCC[C@H](N)C(=O)O; Lauroyl = CCCCCCCCCCCC(=O)*; Hexanoyl = CCCCCC(=O)*; X1 = CN(C)C1CCC(N*)CC1; X13 = O=C(CCN1CCOCC1)*; Aib = CC(C)(N)C(=O)O; Ms = CS(=O)(=O)*; βAla = NCCC(=O)O

Assays:
[1] = tested on: Trypanosoma brucei rhodesiense (STIB 900 strain); assay: Alamar Blue assay against Trypanosoma brucei rhodesiense grown in axenic medium; type: cell-based; conditions: In vitro inhibition, read-out: T.b.rhod.
In short: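 Alamar Blue-based IC50 determination, in triplicate, on axenically grown STIB 900 trypanosomes. Melarsoprol included as reference.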

[2] = tested on: Trypanosoma cruzi trypomastigote forms (Tulahuen strain); assay: Intracellular Trypanosoma cruzi assay in L6-cells, beta-galactosidase/CPRG readout; type: cell-based; conditions: In vitro inhibition, read-out: T.cruzi.
In short: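 Readout was β-galactosidase cleavage of CPRG, read photometrically at 540 nm after 2–6 h colour development, giving IC50 values. Parasites: LacZ-expressing Tulahuen C2C4 strain grown in rat L6 myoblasts; run in triplicate.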

[3] = tested on: Axenically grown Leishmania donovani amastigotes (strain MHOM/ET/67/L82); assay: Axenic Leishmania donovani amastigote resazurin assay; type: cell-based; conditions: In vitro inhibition, read-out: L.don. ax
In short: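 IC50 values derive from resazurin fluorescence (ex 536 nm, em 588 nm), expressed relative to the negative control, after 2-4 hours of plate development. Axenic amastigotes of strain MHOM/ET/67/L82 were used; each test run in triplicate.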

[4] = tested on: intracellular Leishmania donovani (L.don. InMac); assay: Intracellular Leishmania donovani assay (L.don. InMac); type: cell-based; conditions: In vitro inhibition
From the text: (§1) Tests were done in triplicate.

[5] = tested on: Plasmodium falciparum; assay: 3H-hypoxanthine incorporation assay against Plasmodium falciparum; type: cell-based; conditions: In vitro inhibition, read-out: P.falc NF5
Experimental: as §1
IC50 values were calculated by linear interpolation.

[6] = Cytotoxicity assay on L6-cells (Alamar Blue); conditions: rat, Cytotox L6, Cytotoxicity against rat myoblast cells (L6)

Question: What does the source list for CCCCCCCC[C@H](NC(=O)[C@@H]1CCCN1C(=O)CCN1CCOCC1)C(=O)N[C@@H](CC(C)C)C(=O)NC(C)(C)C(=O)N[C@@H](CC(C)C)C(=O)N[C@@H](CC(C)C)C(=O)NC(C)(C)C(=O)NC(C)(C)C(=O)NCCC(=O)N[C@@H](C)CN(C)C [Compound 5650, (2S)-N-[(1S)-1-[(1-{[(1S)-1-{[(1S)-1-{[1-({1-[(2-{[(2S)-1-(dimethylamino)propan-2-yl]carbamoyl}ethyl)carbamoyl]-1-methylethyl}carbamoyl)-1-methylethyl]carbamoyl}-3-methylbutyl]carbamoyl}-3-methylbutyl]carbamoyl}-1-methylethyl)carbamoyl]-3-methylbutyl]-2-{[(2S)-1-[3-(morpholin-4-yl)propanoyl]pyrrolidin-2-yl]formamido}decanamide] (X13-P[Gly(octyl)]L[Aib]LL[Aib][Aib][βAla]-{NH((S)CH(Me)CH2NMe2)})?
Answer: IC50 [1]: 15.3 nM; IC50 [2]: 133 nM; IC50 [3]: 105 nM; IC50 [4]: 188 nM; IC50 [5]: 11.1 nM; IC50 at 70 h [6]: 492 nM

Question: With CCCCCCCCCCCC(=O)N1CCC[C@H]1C(=O)N[C@@H](CCCCCCCC)C(=O)N[C@@H](CC(C)C)C(=O)NC(C)(C)C(=O)N[C@@H](CC(C)C)C(=O)N[C@@H](CC(C)C)C(=O)NC(C)(C)C(=O)NC(C)(C)C(=O)NCCC(=O)N[C@@H](C)CN(C)C [Compound 5651, (2S)-N-[(1S)-1-[(1-{[(1S)-1-{[(1S)-1-{[1-({1-[(2-{[(2S)-1-(dimethylamino)propan-2-yl]carbamoyl}ethyl)carbamoyl]-1-methylethyl}carbamoyl)-1-methylethyl]carbamoyl}-3-methylbutyl]carbamoyl}-3-methylbutyl]carbamoyl}-1-methylethyl)carbamoyl]-3-methylbutyl]-2-{[(2S)-1-dodecanoylpyrrolidin-2-yl]formamido}decanamide] (Lauroyl-P[Gly(octyl)]L[Aib]LL[Aib][Aib][βAla]-{NH((S)CH(Me)CH2NMe2)}) as the compound, how does the IC50 [1] read?
Answer: Its IC50 is 3.3 nM.

Question: What about the IC50 [2] of the same compound?
Answer: Its IC50 is 1370 nM.

Question: And the IC50 [3]?
Answer: Its IC50 is 53 nM.

Question: And the IC50 [4]?
Answer: The IC50 was 707 nM.

Question: What about the IC50 [5] of the same compound?
Answer: Its IC50 is 0.8 nM.

Question: And the IC50 at 70 h [6]?
Answer: Its IC50 at 70 h is 498 nM.

Question: With CCCCCCCC[C@H](NC(=O)[C@@H]1CCCN1S(C)(=O)=O)C(=O)N[C@@H](CC(C)C)C(=O)NC(C)(C)C(=O)N[C@@H](CC(C)C)C(=O)N[C@@H](CC(C)C)C(=O)NC(C)(C)C(=O)NC(C)(C)C(=O)NCCC(=O)N[C@@H](C)CN(C)C [Compound 5652, (2S)-N-[(1S)-1-[(1-{[(1S)-1-{[(1S)-1-{[1-({1-[(2-{[(2S)-1-(dimethylamino)propan-2-yl]carbamoyl}ethyl)carbamoyl]-1-methylethyl}carbamoyl)-1-methylethyl]carbamoyl}-3-methylbutyl]carbamoyl}-3-methylbutyl]carbamoyl}-1-methylethyl)carbamoyl]-3-methylbutyl]-2-{[(2S)-1-methanesulfonylpyrrolidin-2-yl]formamido}decanamide] (Ms-P[Gly(octyl)]L[Aib]LL[Aib][Aib][βAla]-{NH((S)CH(Me)CH2NMe2)}) as the compound, how does the IC50 [1] read?
Answer: The IC50 was 4 nM.

Question: What about the IC50 [2] of the same compound?
Answer: Its IC50 is 436 nM.

Question: And the IC50 [3]?
Answer: Its IC50 is 8.1 nM.

Question: And the IC50 [4]?
Answer: Its IC50 is 166 nM.

Question: What about the IC50 [5] of the same compound?
Answer: The IC50 was 4.6 nM.

Question: What about the IC50 at 70 h [6] of the same compound?
Answer: The IC50 at 70 h was 1410 nM.

Question: For CCCCCCCC[C@H](NC(=O)[C@@H]1CCCN1S(=O)(=O)c1cccc2c(N(C)C)cccc12)C(=O)N[C@@H](CC(C)C)C(=O)NC(C)(C)C(=O)N[C@@H](CC(C)C)C(=O)N[C@@H](CC(C)C)C(=O)NC(C)(C)C(=O)NC(C)(C)C(=O)NCCC(=O)N[C@@H](C)CN(C)C [Compound 5765, (2S)-2-{[(2S)-1-{[5-(dimethylamino)naphthalen-1-yl]sulfonyl}pyrrolidin-2-yl]formamido}-N-[(1S)-1-[(1-{[(1S)-1-{[(1S)-1-{[1-({1-[(2-{[(2S)-1-(dimethylamino)propan-2-yl]carbamoyl}ethyl)carbamoyl]-1-methylethyl}carbamoyl)-1-methylethyl]carbamoyl}-3-methylbutyl]carbamoyl}-3-methylbutyl]carbamoyl}-1-methylethyl)carbamoyl]-3-methylbutyl]decanamide] (Dansyl-P[Gly(octyl)]L[Aib]LL[Aib][Aib][βAla]-{NH((S)CH(Me)CH2NMe2)}), which IC50 [1] is on record?
Answer: Its IC50 is 1.6 nM.

Question: What about the IC50 [2] of the same compound?
Answer: Its IC50 is 126 nM.

Question: And the IC50 [3]?
Answer: The IC50 was 4.3 nM.

Question: And the IC50 [4]?
Answer: Its IC50 is 203 nM.

Question: And the IC50 [5]?
Answer: Its IC50 is 1 nM.

Question: What about the IC50 at 70 h [6] of the same compound?
Answer: The IC50 at 70 h was 250 nM.

Question: Which IC50 [1] does the source give for CCCCCCCC[C@H](NC(=O)[C@@H]1CCCN1C(=O)CC12CC3CC(CC(C3)C1)C2)C(=O)N[C@@H](CC(C)C)C(=O)NC(C)(C)C(=O)N[C@@H](CC(C)C)C(=O)N[C@@H](CC(C)C)C(=O)NC(C)(C)C(=O)NC(C)(C)C(=O)NCCC(=O)N[C@@H](C)CN(C)C [Compound 5771, (2S)-2-{[(2S)-1-[2-(adamantan-1-yl)acetyl]pyrrolidin-2-yl]formamido}-N-[(1S)-1-[(1-{[(1S)-1-{[(1S)-1-{[1-({1-[(2-{[(2S)-1-(dimethylamino)propan-2-yl]carbamoyl}ethyl)carbamoyl]-1-methylethyl}carbamoyl)-1-methylethyl]carbamoyl}-3-methylbutyl]carbamoyl}-3-methylbutyl]carbamoyl}-1-methylethyl)carbamoyl]-3-methylbutyl]decanamide] ({Acetyl(1-adamantyl)}-P[Gly(octyl)]L[Aib]LL[Aib][Aib][βAla]-{NH((S)CH(Me)CH2NMe2)}) here?
Answer: The IC50 was 6.9 nM.

Question: What about the IC50 [2] of the same compound?
Answer: The IC50 was 42.1 nM.

Question: And the IC50 [3]?
Answer: Its IC50 is 0.8 nM.

Question: What about the IC50 [4] of the same compound?
Answer: Its IC50 is 58.6 nM.

Question: What about the IC50 [5] of the same compound?
Answer: The IC50 was 0.8 nM.

Question: And the IC50 at 70 h [6]?
Answer: Its IC50 at 70 h is 113 nM.

Question: For CCCCCCCC[C@@H](NC(=O)[C@H]1CCCN1C(=O)CCCCC)C(=O)N[C@H](CC(C)C)C(=O)NC(C)(C)C(=O)N[C@H](CC(C)C)C(=O)N[C@H](CC(C)C)C(=O)NC(C)(C)C(=O)NC(C)(C)C(=O)NCCC(=O)N[C@@H](C)CN(C)C [Compound 5849, (2R)-N-[(1R)-1-[(1-{[(1R)-1-{[(1R)-1-{[1-({1-[(2-{[(2S)-1-(dimethylamino)propan-2-yl]carbamoyl}ethyl)carbamoyl]-1-methylethyl}carbamoyl)-1-methylethyl]carbamoyl}-3-methylbutyl]carbamoyl}-3-methylbutyl]carbamoyl}-1-methylethyl)carbamoyl]-3-methylbutyl]-2-{[(2R)-1-hexanoylpyrrolidin-2-yl]formamido}decanamide] (Hexanoyl-[dP][dGly(nOct)][dL][Aib][dL][dL][Aib][Aib][βAla]-{NH((S)CH(Me)CH2NMe2)}), which IC50 [1] is on record?
Answer: Its IC50 is 55.6 nM.

Question: And the IC50 [2]?
Answer: Its IC50 is 257 nM.

Question: What about the IC50 [3] of the same compound?
Answer: The IC50 was 3.5 nM.

Question: And the IC50 [4]?
Answer: The IC50 was 67.1 nM.

Question: What about the IC50 [5] of the same compound?
Answer: The IC50 was 7.5 nM.

Question: And the IC50 at 70 h [6]?
Answer: Its IC50 at 70 h is 1070 nM.

Question: Which IC50 [1] does the source give for CCCCCCCC[C@H](NC(=O)[C@@H]1CCCN1C(=O)CCCCC)C(=O)N[C@@H](CC(C)C)C(=O)NC(C)(C)C(=O)N[C@H](CC(C)C)C(=O)N[C@H](CC(C)C)C(=O)NC(C)(C)C(=O)NC(C)(C)C(=O)NCCC(=O)N[C@@H](C)CN(C)C [Compound 5850, (2S)-N-[(1S)-1-[(1-{[(1R)-1-{[(1R)-1-{[1-({1-[(2-{[(2S)-1-(dimethylamino)propan-2-yl]carbamoyl}ethyl)carbamoyl]-1-methylethyl}carbamoyl)-1-methylethyl]carbamoyl}-3-methylbutyl]carbamoyl}-3-methylbutyl]carbamoyl}-1-methylethyl)carbamoyl]-3-methylbutyl]-2-{[(2S)-1-hexanoylpyrrolidin-2-yl]formamido}decanamide] (Hexanoyl-P[Gly(octyl)]L[Aib][dL][dL][Aib][Aib][βAla]-{NH((S)CH(Me)CH2NMe2)}) here?
Answer: Its IC50 is 18.5 nM.

Question: And the IC50 [2]?
Answer: The IC50 was 319 nM.

Question: What about the IC50 [3] of the same compound?
Answer: Its IC50 is 8.8 nM.

Question: And the IC50 [4]?
Answer: The IC50 was 71.5 nM.

Question: What about the IC50 [5] of the same compound?
Answer: The IC50 was 0.9 nM.

Question: And the IC50 at 70 h [6]?
Answer: Its IC50 at 70 h is 820 nM.

Question: For CCCCCCCC[C@@H](NC(=O)[C@H]1CCCN1C(=O)CCCCC)C(=O)N[C@H](CC(C)C)C(=O)NC(C)(C)C(=O)N[C@@H](CC(C)C)C(=O)N[C@@H](CC(C)C)C(=O)NC(C)(C)C(=O)NC(C)(C)C(=O)NCCC(=O)N[C@@H](C)CN(C)C [Compound 5851, (2R)-N-[(1R)-1-[(1-{[(1S)-1-{[(1S)-1-{[1-({1-[(2-{[(2S)-1-(dimethylamino)propan-2-yl]carbamoyl}ethyl)carbamoyl]-1-methylethyl}carbamoyl)-1-methylethyl]carbamoyl}-3-methylbutyl]carbamoyl}-3-methylbutyl]carbamoyl}-1-methylethyl)carbamoyl]-3-methylbutyl]-2-{[(2R)-1-hexanoylpyrrolidin-2-yl]formamido}decanamide] (Hexanoyl-[dP][dGly(nOct)][dL][Aib]LL[Aib][Aib][βAla]-{NH((S)CH(Me)CH2NMe2)}), which IC50 [1] is on record?
Answer: The IC50 was 165 nM.

Question: What about the IC50 [2] of the same compound?
Answer: The IC50 was 1130 nM.

Question: What about the IC50 [3] of the same compound?
Answer: Its IC50 is 144 nM.

Question: And the IC50 [4]?
Answer: The IC50 was 241 nM.

Question: And the IC50 [5]?
Answer: The IC50 was 51.7 nM.

Question: What about the IC50 at 70 h [6] of the same compound?
Answer: The IC50 at 70 h was 1210 nM.

Question: What does the source list for CCCCCCCC[C@H](NC(=O)[C@@H]1CCCN1C(=O)CCCCC)C(=O)N[C@@H](CC(C)C)C(=O)NC(C)(C)C(=O)N[C@@H](CC(C)C)C(=O)N[C@@H](CC(C)C)C(=O)NC(C)(C)C(=O)NC(C)(C)C(=O)NCCC(=O)NC1CCC(N(C)C)CC1 (stereo partly drawn) [Compound 5881, (2S)-N-[(1S)-1-[(1-{[(1S)-1-{[(1S)-1-{[1-({1-[(2-{[4-(dimethylamino)cyclohexyl]carbamoyl}ethyl)carbamoyl]-1-methylethyl}carbamoyl)-1-methylethyl]carbamoyl}-3-methylbutyl]carbamoyl}-3-methylbutyl]carbamoyl}-1-methylethyl)carbamoyl]-3-methylbutyl]-2-{[(2S)-1-hexanoylpyrrolidin-2-yl]formamido}decanamide] (Hexanoyl-P[Gly(octyl)]L[Aib]LL[Aib][Aib][βAla]-X1)?
Answer: IC50 [1]: 44200 nM; IC50 [2]: 44 nM; IC50 [3]: 0.7 nM; IC50 [4]: 42500 nM; IC50 [5]: 0.2 nM; IC50 at 70 h [6]: 592 nM
